Measured values: patent US12365667B2, “Sulfone pyridine alkyl amide-substituted heteroaryl compounds” (BRISTOL-MYERS SQUIBB COMPANY, priority 2017, dated 2025)

Tested on: IFNα-induced STAT phosphorylation (pSTAT5) in human whole blood
Assay: IFNα-Induced STAT Phosphorylation in Human Whole Blood
Type: cell-based
Settings: 1 h incubation with compound, 1000 U/mL recombinant human IFNα A/D for 15 min, pSTAT5 in CD3 positive population, read-out: IFNα-Induced Stat Phosph. (IC50)
Procedure: IFNα-Induced STAT Phosphorylation in Human Whole Blood
After an hour long incubation with compound, human whole blood (drawn with either EDTA or ACD-A as anti-coagulant) was stimulated with 1000 U/mL recombinant human IFNα A/D (R&D Systems 11200-2) for 15 min. The stimulation was stopped by adding Fix/Lyse buffer (BD 558049). Cells were stained with a CD3 FITC antibody (BD 555916), washed, and permeabilized on ice using Perm III buffer (BD 558050). Cells were then stained with an Alexa-Fluor 647 pSTAT5 (pY694) antibody (BD 612599) for 30 min prior to analysis on the FACS Canto II. The amount of pSTAT5 expression was quantitated by median fluorescence intensity after gating on the CD3 positive population.

Row | IC50 | SMILES
1 | 15 nM | CNC(=O)c1nnc(Nc2cnc(COC)cn2)cc1Nc1ncccc1S(C)(=O)=O [Example 42]
2 | 49 nM | CCC(=O)Nc1cc(Nc2ncccc2S(C)(=O)=O)c(C(=O)NC)nn1 [Example 8]
3 | 34 nM | CNC(=O)c1nnc(NC(=O)C2CC2(F)F)cc1Nc1ncccc1S(C)(=O)=O (centres unmarked) [Example 45]
4 | 29 nM | CNC(=O)c1nnc(Nc2cnn(C)n2)cc1Nc1ncccc1S(C)(=O)=O [Example 51]
5 | 15 nM | CCc1cnc(Nc2cc(Nc3ncccc3S(C)(=O)=O)c(C(=O)NC)nn2)cn1 [Example 39]
6 | 18 nM | CNC(=O)c1nnc(Nc2cc(C)nc(C3CC3)n2)cc1Nc1ncccc1S(C)(=O)=O [Example 61]
7 | 203 nM | CCC(=O)Nc1cc(Nc2nc(C)ccc2S(C)(=O)=O)c(C(=O)NC)cn1 [Example 241]
8 | 193 nM | CNC(=O)c1nnc(Nc2ccc(C(C)(C)NC(=O)CN)nn2)cc1Nc1ncccc1S(C)(=O)=O [Example 65]
9 | 183 nM | CNC(=O)c1nnc(NC(=O)C=C2CCOCC2)cc1Nc1ncccc1S(C)(=O)=O [Example 123]
10 | 80 nM | CNC(=O)c1nnc(NC(=O)CC(C)C)cc1Nc1ncccc1S(C)(=O)=O [Example 129]
11 | 24 nM | CNC(=O)c1nnc(Nc2cc(C3CC3)nc(COC)n2)cc1Nc1ncccc1S(C)(=O)=O [Example 41]
12 | 198 nM | CNC(=O)c1nnc(NC(=O)C2CC2)cc1Nc1nc(OC)ccc1S(C)(=O)=O [Example 200]
13 | 447 nM | CNC(=O)c1nnc(Nc2ccnc(C(F)(F)F)n2)cc1Nc1ncccc1S(C)(=O)=O [Example 138]
14 | 12 nM | CNC(=O)c1nnc(Nc2ccc(N3CCOCC3=O)cn2)cc1Nc1nc(C)ccc1S(C)(=O)=O [Example 196]
15 | 61 nM | CNC(=O)c1nnc(Nc2ccc(-n3cccc(C(F)(F)F)c3=O)cn2)cc1Nc1nc(C)ccc1S(C)(=O)=O [Example 190]
16 | 131 nM | CNC(=O)c1cnc(Nc2cc(C#N)c(C(F)(F)F)cn2)cc1Nc1ncccc1S(C)(=O)=O [Example 232]
17 | 58 nM | CNC(=O)c1nnc(NC(=O)[C@H]2C[C@@H]2C)cc1Nc1ncccc1S(C)(=O)=O [Example 49]
18 | 77 nM | CNC(=O)c1nnc(NC(=O)C2CCC2)cc1Nc1ncccc1S(C)(=O)=O [Example 9]
19 | 2450 nM | CNC(=O)c1cnc(Nc2cccc(-c3ccccc3)n2)cc1Nc1ncccc1S(C)(=O)=O [Example 238]
20 | 30 nM | CNC(=O)c1nnc(Nc2cc(C(F)(F)F)c(C(=O)N(C)C)cn2)cc1Nc1ncccc1S(C)(=O)=O [Example 50]
21 | 24 nM | CCOC(=O)NC(C)(C)c1ccc(Nc2cc(Nc3ncccc3S(C)(=O)=O)c(C(=O)NC)nn2)nc1 [Example 79]
22 | 28 nM | CNC(=O)c1cnc(Nc2ccccn2)cc1Nc1ncccc1S(C)(=O)=O [Example 216]
23 | 92 nM | CNC(=O)c1nnc(Nc2cc(C(C)(C)O)c(Cl)cn2)cc1Nc1ncccc1S(C)(=O)=O [Example 29]
24 | 1730 nM | CNC(=O)c1nnc(Nc2cc(C)nc(C)n2)cc1Nc1nc(C)ccc1S(C)(=O)=O [Example 185]
25 | 138 nM | CNC(=O)c1nnc(Nc2ccc(-c3ccccc3)cn2)cc1Nc1ncccc1S(C)(=O)=O [Example 102]

Row | SMILES | IC50
26 | CNC(=O)c1nnc(Nc2ccc(C(C)(C)N)cn2)cc1Nc1ncccc1S(C)(=O)=O [Example 24] | 9 nM
27 | CNC(=O)c1nnc(Nc2ccc(C(F)(F)F)nn2)cc1Nc1ncccc1S(C)(=O)=O [Example 19] | 44 nM

Same assay, conditions: Homo sapiens, 1 h incubation with compound, 1000 U/mL recombinant human IFNα A/D for 15 min, pSTAT5 in CD3 positive population, read-out: IFNα-Induced Stat Phosph. (IC50)

Row | IC50 | SMILES
28 | 53 nM | [2H]C([2H])([2H])NC(=O)c1nnc(NC(=O)[C@@H]2CC23CC3)cc1Nc1ncccc1S(C)(=O)=O [Example 252, (R)—N-(methyl-d3)-4-((3-(methylsulfonyl)pyridin-2-yl)amino)-6-(spiro[2.2]pentane-1-carboxamido)pyridazine-3-carboxamide]
29 | 636 nM | [2H]C([2H])([2H])NC(=O)c1cnc(Nc2ccc(-c3ccccc3)cn2)cc1Nc1ncccc1S(C)(=O)=O [Example 234, N-(methyl-d3)-4-((3-(methylsulfonyl)pyridin-2-yl)amino)-6-((5-phenylpyridin-2-yl)amino)nicotinamide]
